Assay results as given in patent publication US9630929B2, “Benzenesulfonamide compounds and their use as therapeutic agents” (XENON PHARMACEUTICALS INC., priority 2011, dated 2017).

What was measured:
NaV1.7 = NaV1.7 (Homo sapiens (Human), UniProt Q15858); assay: NaV flux assay, inhibition of NaV1.7; assay type: cell-based; conditions: NaV flux data, included when EP data is not available
NaV1.5 = NaV1.5 (Homo sapiens (Human), UniProt Q14524); assay: NaV flux assay, inhibition of NaV1.5; assay type: cell-based; conditions: NaV flux data, included when EP data is not available
NaV1.5, sequence (Q14524 whole entry): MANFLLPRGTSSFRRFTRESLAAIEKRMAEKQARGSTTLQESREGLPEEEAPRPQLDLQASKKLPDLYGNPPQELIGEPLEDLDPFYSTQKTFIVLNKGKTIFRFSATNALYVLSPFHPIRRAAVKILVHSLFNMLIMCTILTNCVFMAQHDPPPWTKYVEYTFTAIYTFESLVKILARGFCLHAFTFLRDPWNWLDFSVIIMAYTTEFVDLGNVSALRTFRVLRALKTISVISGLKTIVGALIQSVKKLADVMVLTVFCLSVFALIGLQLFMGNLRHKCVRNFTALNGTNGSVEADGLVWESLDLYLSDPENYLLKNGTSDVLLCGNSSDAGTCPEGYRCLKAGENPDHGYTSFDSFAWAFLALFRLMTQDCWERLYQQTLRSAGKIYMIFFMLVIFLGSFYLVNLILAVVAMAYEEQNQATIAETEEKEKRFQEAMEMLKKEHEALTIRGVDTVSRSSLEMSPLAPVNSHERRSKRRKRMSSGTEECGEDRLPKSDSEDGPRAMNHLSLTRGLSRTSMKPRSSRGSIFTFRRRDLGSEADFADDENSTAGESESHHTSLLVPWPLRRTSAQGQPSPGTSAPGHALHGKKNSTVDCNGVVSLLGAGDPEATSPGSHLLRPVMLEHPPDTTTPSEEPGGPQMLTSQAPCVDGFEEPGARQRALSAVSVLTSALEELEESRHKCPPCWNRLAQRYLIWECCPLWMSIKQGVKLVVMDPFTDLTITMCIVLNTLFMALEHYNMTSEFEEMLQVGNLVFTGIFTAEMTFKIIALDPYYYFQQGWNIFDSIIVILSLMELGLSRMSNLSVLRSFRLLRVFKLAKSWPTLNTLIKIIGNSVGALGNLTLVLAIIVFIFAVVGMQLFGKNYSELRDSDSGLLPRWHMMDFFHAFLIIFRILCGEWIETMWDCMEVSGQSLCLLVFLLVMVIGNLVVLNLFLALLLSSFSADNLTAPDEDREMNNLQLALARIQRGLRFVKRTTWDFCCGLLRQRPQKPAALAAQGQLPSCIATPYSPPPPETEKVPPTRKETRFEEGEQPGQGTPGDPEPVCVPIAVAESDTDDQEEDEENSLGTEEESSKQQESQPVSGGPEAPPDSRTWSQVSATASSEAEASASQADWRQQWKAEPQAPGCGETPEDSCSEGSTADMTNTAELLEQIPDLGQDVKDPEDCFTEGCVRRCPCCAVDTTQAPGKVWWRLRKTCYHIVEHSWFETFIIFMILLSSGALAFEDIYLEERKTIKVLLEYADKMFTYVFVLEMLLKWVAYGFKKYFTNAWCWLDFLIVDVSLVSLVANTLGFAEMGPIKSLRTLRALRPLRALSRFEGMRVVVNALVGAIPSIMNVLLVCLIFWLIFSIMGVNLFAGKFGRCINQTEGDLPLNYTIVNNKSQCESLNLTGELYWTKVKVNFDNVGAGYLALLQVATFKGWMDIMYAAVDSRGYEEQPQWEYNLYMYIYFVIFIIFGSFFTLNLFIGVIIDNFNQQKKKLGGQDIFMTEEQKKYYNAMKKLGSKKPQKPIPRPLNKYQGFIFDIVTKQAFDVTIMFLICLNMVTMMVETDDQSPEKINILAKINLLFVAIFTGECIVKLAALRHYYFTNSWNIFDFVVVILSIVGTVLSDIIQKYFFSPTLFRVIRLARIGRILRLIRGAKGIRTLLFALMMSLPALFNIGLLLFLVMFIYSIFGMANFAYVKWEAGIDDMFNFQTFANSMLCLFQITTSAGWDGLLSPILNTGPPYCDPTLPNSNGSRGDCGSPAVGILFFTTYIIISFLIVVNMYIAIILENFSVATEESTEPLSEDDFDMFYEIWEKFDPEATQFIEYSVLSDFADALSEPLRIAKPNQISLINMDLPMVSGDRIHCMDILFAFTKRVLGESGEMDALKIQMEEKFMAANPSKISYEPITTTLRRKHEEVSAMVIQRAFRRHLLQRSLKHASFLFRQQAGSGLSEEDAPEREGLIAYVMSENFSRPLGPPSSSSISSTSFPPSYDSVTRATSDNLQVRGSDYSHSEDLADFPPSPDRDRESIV

NaV1.7, sequence (Q15858 other isoform, or with tags, fused parts or gaps): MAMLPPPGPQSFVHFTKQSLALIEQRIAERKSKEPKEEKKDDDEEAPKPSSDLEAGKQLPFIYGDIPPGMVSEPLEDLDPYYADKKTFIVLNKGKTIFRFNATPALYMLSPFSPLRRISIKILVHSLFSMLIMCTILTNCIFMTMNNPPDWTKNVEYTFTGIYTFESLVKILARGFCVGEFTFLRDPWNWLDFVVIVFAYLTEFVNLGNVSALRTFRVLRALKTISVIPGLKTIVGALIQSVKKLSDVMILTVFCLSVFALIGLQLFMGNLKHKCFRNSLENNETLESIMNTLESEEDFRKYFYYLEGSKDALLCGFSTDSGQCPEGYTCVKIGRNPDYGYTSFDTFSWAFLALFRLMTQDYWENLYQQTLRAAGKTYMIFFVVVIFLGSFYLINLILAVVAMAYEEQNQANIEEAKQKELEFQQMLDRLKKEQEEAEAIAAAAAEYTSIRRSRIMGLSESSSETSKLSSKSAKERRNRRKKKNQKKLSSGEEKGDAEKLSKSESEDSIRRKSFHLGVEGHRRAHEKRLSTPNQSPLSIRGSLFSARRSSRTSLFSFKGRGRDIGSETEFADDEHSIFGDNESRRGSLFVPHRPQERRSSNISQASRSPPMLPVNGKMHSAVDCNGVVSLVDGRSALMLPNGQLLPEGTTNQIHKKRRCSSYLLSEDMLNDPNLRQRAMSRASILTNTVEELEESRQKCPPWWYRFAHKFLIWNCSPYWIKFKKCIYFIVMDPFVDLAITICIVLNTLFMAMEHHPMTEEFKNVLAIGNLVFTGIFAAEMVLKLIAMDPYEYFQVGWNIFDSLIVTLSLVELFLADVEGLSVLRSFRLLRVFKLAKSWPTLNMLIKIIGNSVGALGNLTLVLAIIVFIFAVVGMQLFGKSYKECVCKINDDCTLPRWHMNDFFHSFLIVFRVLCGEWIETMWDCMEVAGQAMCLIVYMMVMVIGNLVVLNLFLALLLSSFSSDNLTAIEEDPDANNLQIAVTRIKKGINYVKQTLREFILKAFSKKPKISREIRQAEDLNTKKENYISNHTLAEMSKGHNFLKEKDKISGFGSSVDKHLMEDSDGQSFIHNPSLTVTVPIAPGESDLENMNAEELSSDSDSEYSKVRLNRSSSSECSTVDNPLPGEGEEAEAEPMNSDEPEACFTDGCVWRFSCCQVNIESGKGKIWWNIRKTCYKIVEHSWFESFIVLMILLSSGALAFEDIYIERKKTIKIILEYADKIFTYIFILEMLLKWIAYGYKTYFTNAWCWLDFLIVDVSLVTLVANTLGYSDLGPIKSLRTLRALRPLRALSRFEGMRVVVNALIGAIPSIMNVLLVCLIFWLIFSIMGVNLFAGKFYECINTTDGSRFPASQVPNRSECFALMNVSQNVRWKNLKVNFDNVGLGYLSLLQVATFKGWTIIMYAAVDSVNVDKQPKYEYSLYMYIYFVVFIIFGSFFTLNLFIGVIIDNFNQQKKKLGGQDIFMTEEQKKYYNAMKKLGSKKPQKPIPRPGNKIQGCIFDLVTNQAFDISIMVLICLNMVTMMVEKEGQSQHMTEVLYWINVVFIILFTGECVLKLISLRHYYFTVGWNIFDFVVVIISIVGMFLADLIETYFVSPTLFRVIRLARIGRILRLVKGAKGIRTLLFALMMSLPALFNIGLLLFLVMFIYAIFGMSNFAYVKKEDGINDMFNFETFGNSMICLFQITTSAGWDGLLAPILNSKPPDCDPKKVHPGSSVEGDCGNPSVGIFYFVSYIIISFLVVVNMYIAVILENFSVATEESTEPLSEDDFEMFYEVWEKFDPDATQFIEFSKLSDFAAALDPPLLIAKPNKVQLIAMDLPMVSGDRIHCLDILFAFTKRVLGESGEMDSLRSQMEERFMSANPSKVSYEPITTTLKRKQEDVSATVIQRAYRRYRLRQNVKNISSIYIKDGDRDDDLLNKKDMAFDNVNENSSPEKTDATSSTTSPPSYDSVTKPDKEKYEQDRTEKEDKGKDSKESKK
NaV1.7, sequence (Q07699 19-218 partner): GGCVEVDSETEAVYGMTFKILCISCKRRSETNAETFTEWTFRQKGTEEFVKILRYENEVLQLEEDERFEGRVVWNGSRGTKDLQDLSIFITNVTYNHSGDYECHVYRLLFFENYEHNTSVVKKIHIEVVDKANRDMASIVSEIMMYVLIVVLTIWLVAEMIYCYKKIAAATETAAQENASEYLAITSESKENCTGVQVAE

Structure (SMILES)	IC50 (NaV1.7)	IC50 (NaV1.5)
O=C1CC[C@@H](c2ccc(Cl)cc2)[C@H](COc2cc(F)c(S(=O)(=O)Nc3ncns3)cc2F)C1 (relative stereo) [Example 109, 4-((trans-2-(4-chlorophenyl)-5-oxocyclohexyl)methoxy)-2,5-difluoro-N-(1,2,4-thiadiazol-5-yl)benzenesulfonamide]	0.244 µM	> 10 µM
O=S(=O)(Nc1ncns1)c1cc(F)c(OC[C@@H]2C[C@H](O)CCC2c2ccc(Cl)cc2)cc1F (stereo partly drawn) [Example 110, 4-(((trans-5S)-2-(4-chlorophenyl)-5-hydroxycyclohexyl)methoxy)-2,5-difluoro-N-(1,2,4-thiadiazol-5-yl)benzenesulfonamide]	0.426 µM	> 10 µM
O=S(=O)(Nc1ncns1)c1cc(F)c(OC[C@@H]2C[C@@H](O)CCC2c2ccc(Cl)cc2)cc1F (stereo partly drawn) [Example 111, 4-(((trans-5R)-2-(4-chlorophenyl)-5-hydroxycyclohexyl)methoxy)-2,5-difluoro-N-(1,2,4-thiadiazol-5-yl)benzenesulfonamide]	2.04 µM	> 10 µM
O=S(=O)(Nc1ncns1)c1cc(F)c(OCC2CNCCN2c2ccc(Cl)cc2)cc1F (centres unmarked) [Example 112, 4-((1-(4-chlorophenyl)piperazin-2-yl)methoxy)-2,5-difluoro-N-(1,2,4-thiadiazol-5-yl)benzenesulfonamide]	0.326 µM	> 10 µM
